Assays:
Type in all cases: cell-based, human
MDA-MB-231 cells = assay: Modified transwell migration assay; details: EGF 100 ng/mL in bottom chamber, 8 hours
From the text: In addition to the MBDM assay, the modified transwell migration assay (Ahirwar D K, et al. (2015) Sci Rep 5:11005.) was used to determine the effects of standalone iEF treatment on number of cells migrated to complement the speed and persistence data obtained from the MBDM assay. iEF treatment alone had no significant effect (neither stimulatory nor inhibitory) on the total number of MDA-MB-231 cells that spontaneously migrated across the transwell membrane (˜10 μm thick) compared to the untreated control (FIG. 8). These outcomes occurred for both anti-parallel and parallel directions of iEF application.
Transwell permeable supports that have 6.5 mm diameter inserts of polycarbonate membrane with 8 μm diameter pore size (Corning, CLS3422) were used in the experiments reported here. […] Cell migration numbers were then quantified using a custom MATLAB script as described in Image Acquisition and Processing. […]
Images from experiments with the transwell migration assays were taken using a stereo microscope (Leica Microsystems Inc.) after fixation and staining of the cells using the HEMA 3 solution kit (Fisher Scientific). […] The images were then imported into MATLAB and analyzed using a custom code (MATLAB script). […] The average area of a cell was determined from the mean of manual measurements of approximately 20 isolated cells for each case. […]

[1] = tested on: lactate dehydrogenase (LDH); assay: LDH activity colorimetric kinetic assay; details: EGF 25 ng/mL, 12 hours; not significant
From the text: (§1) To investigate whether iEF has an effect on metabolic function of MDA-MB-231 cells, the activity levels of lactate dehydrogenase (LDH) and succinate dehydrogenase (SDH) were examined. LDH is an enzyme that catalyzes the interconversion of pyruvate to lactate as part of the glycolysis chain (Pelicano H, et al. (2006) Oncogene 25 (34):4633). SDH is an enzyme within Complex II of the mitochondria that is utilized in both the tricarboxylic acid (TCA) cycle as well as oxidative phosphorylation (OXPHOS) (Gottlieb E & Tomlinson IP (2005) Nat Rev Cancer. 5 (11):857). As part of the TCA cycle, SDH catalyzes the oxidation of succinate to fumarate, and as part of OXPHOS, SDH transfers two electrons from flavin adenine dinucleotide into the electron transport chain (Gottlieb E & Tomlinson IP (2005) Nat Rev Cancer. 5 (11):857). To determine whether LDH or SDH activity levels were changing, colorimetric kinetic assays were employed. […]
(§2) 1×10^6 cells/well were plated in 6 well plates in growth media for 12 hours followed by migration media (0.1% FBS) for an additional 12 hours. […] The LDH activity assay kit (Sigma-Aldrich, MAK066) and the SDH activity colorimetric assay kit (Sigma-Aldrich, MAK197) were used to quantify LDH and SDH activity respectively. […] For quantification of LDH and SDH, the protocols provided by the supplier were followed. […]

[2] = tested on: succinate dehydrogenase (SDH); assay: SDH activity colorimetric kinetic assay; details: EGF 25 ng/mL, 12 hours; not significant
From the text: as §1, §2

change of LDH activity from control [1]: < 6%
increase of SDH activity [2]: 23%
Substance: epidermal growth factor [EGF]
transmigration compared to untreated controls (MDA-MB-231 cells): significantly promoted
